*1 amine or outer side, *2 acyl side, *3 side chain or, on linkers, in order; H or OH if unused. Where a SMILES comes first, the peptide text is derived from it. Side-chain parts run from the residue outwards. The star is where a group is joined. C18 diacid = O=C(O)CCCCCCCCCCCCCCCCC(=O)*; γGlu = O=C(O)[C@H](CCC(=O)[*:2])N[*:1]; Isovaleryl = CC(C)CC(=O)*; AEEA = NCCOCCOCC(=O)O

Ki data for five molecules are collected here from patent US12559529B2, “NPY2 receptor agonists” (Boehringer Ingelheim International GmbH, priority 2019, dated 2026).

The target in the assay is T1, Human Neuropeptide Y2 Receptor (Homo sapiens, UniProt P49146).
T1 construct: purchased CHEMICON HTS066M
T1 sequence (P49146 1-381): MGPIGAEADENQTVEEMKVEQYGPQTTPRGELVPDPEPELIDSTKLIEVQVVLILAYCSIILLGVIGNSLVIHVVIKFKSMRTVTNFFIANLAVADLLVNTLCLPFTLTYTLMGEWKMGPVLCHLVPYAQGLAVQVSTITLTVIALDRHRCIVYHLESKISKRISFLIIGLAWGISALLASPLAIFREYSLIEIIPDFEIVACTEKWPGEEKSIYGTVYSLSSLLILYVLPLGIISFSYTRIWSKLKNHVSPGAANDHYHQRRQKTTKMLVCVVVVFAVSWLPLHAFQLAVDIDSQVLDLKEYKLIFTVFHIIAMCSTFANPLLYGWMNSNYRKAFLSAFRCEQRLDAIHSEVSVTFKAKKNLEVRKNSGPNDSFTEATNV
Put plainly: Radioligand binding competition assay (RLB). Particulars: Table 3; human 125I-PYY (1-36) 0.02 nM, Y2 receptor membranes; read-out: Ki. The method in brief: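 Membranes from cells expressing human Y2 receptor (0.5 μg protein/well) were incubated with radioligand and serially diluted peptides in 50 mM HEPES, 5 mM MgCl2, 1 mM CaCl2, 0.2% ovalbumin, pH 7.4, for 2 h at room temperature with shaking. Bound radioactivity was collected by filtration and counted; IC50 from sigmoidal nonlinear regression.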
Usually Ki stands for a measure of affinity in units of concentration, obtained from inhibition or displacement. With `CC(C)CC(=O)N[C@@H](C)C(=O)N1CCC[C@H]1C(=O)N[C@@H](CCC(=O)O)C(=O)N[C@@H](CCCCNC(=O)COCCOCCNC(=O)COCCOCCNC(=O)CC[C@H](NC(=O)CCCCCCCCCCCCCCCCC(=O)O)C(=O)O)C(=O)N1CCC[C@H]1C(=O)N[C@@H](CCC(=O)O)C(=O)N[C@@H](CCC(=O)O)C(=O)N[C@@H](C)C(=O)N[C@@H](C)C(=O)N[C@@H](CO)C(=O)N[C@@H](C)C(=O)N[C@@H](CCC(=O)O)C(=O)N[C@@H](CCC(=O)O)C(=O)N[C@@H](CC(C)C)C(=O)N[C@@H](CCC(N)=O)C(=O)N[C@@H](CCCNC(=N)N)C(=O)N[C@@H](Cc1ccc(O)cc1)C(=O)N[C@@H](Cc1ccc(O)cc1)C(=O)N[C@H](C(=O)N[C@@H](CO)C(=O)N[C@@H](CC(C)C)C(=O)N[C@@H](CCCNC(=N)N)C(=O)N[C@@H](Cc1c[nH]cn1)C(=O)N[C@@H](Cc1ccc(O)cc1)C(=O)N[C@@H](Cc1ccc(O)cc1)C(=O)N[C@@H](CC(N)=O)C(=O)N[C@@H](Cc1c[nH]c2ccccc12)C(=O)N[C@@H](CC(C)C)C(=O)N[C@H](C(=O)N[C@@H](CCCNC(=N)N)C(=O)N[C@@H](CCC(N)=O)C(=O)N[C@@H](CCCNC(=N)N)C(=O)N[C@@H](Cc1ccc(O)cc1)C(N)=O)[C@@H](C)O)C(C)C` [Compound 220, N{alpha-4}-(3-methylbutanoyl)-N{epsilon-7}-[2-(2-{2-[2-(2-{2-[(4S)-4-carboxy-4-(17-carboxyheptadecanamido)butanamido]ethoxy}ethoxy)acetamido]ethoxy}ethoxy)acetamido]-[4A,7K,9E,11A,14A,18Q,22V,28Y,30W,31L]hPYY (4-36)], the inhibitory constant (Ki) stood at 2.99 nM.

`CC(C)CC(=O)N[C@@H](C)C(=O)N1CCC[C@H]1C(=O)N[C@@H](CCC(=O)O)C(=O)N[C@@H](CCCCNC(=O)COCCOCCNC(=O)COCCOCCNC(=O)CC[C@H](NC(=O)CCCCCCCCCCCCCCCCC(=O)O)C(=O)O)C(=O)N1CCC[C@H]1C(=O)N[C@@H](CCC(=O)O)C(=O)N[C@@H](CCC(=O)O)C(=O)N[C@@H](CC(=O)O)C(=O)N[C@@H](CO)C(=O)N[C@@H](C)C(=O)N1CCC[C@H]1C(=O)N[C@@H](CCC(=O)O)C(=O)N[C@@H](CCC(=O)O)C(=O)N[C@@H](CC(C)C)C(=O)N[C@@H](CCC(N)=O)C(=O)N[C@@H](CCCNC(=N)N)C(=O)N[C@@H](Cc1ccc(O)cc1)C(=O)N[C@@H](Cc1ccc(O)cc1)C(=O)N[C@H](C(=O)N[C@@H](CO)C(=O)N[C@@H](CC(C)C)C(=O)N[C@@H](CCCNC(=N)N)C(=O)N[C@@H](Cc1c[nH]cn1)C(=O)N[C@@H](Cc1ccc(O)cc1)C(=O)N[C@@H](Cc1ccc(O)cc1)C(=O)N[C@@H](CC(N)=O)C(=O)N[C@@H](Cc1c[nH]c2ccccc12)C(=O)N[C@@H](CC(C)C)C(=O)N[C@H](C(=O)N[C@@H](CCCNC(=N)N)C(=O)N[C@@H](CCC(N)=O)C(=O)N[C@@H](CCCNC(=N)N)C(=O)N[C@@H](Cc1ccc(O)cc1)C(N)=O)[C@@H](C)O)C(C)C` [Compound 67, N{alpha-4}-(3-methylbutanoyl)-N{epsilon-7}-[2-(2-{2-[2-(2-{2-[(4S)-4-carboxy-4-(17-carboxyheptadecanamido)butanamido]ethoxy}ethoxy)acetamido]ethoxy}ethoxy)acetamido]-[4A,7K,9E,12S,13A,18Q,22V,28Y,30W,31L]hPYY (4-36)]: the Ki was found to be 4.37 nM.

Turning to `CC(C)CC(=O)N[C@@H](C)C(=O)N1CCC[C@H]1C(=O)N[C@@H](CCC(=O)O)C(=O)N[C@@H](CCCCNC(=O)COCCOCCNC(=O)COCCOCCNC(=O)CC[C@H](NC(=O)CCCCCCCCCCCCCCCCC(=O)O)C(=O)O)C(=O)N1CCC[C@H]1C(=O)N[C@@H](CCC(=O)O)C(=O)N[C@@H](CCC(=O)O)C(=O)N[C@@H](CCC(=O)O)C(=O)N[C@@H](C)C(=O)N[C@@H](CO)C(=O)N1CCC[C@H]1C(=O)N[C@@H](CCC(=O)O)C(=O)N[C@@H](CCC(=O)O)C(=O)N[C@@H](CC(C)C)C(=O)N[C@@H](CCC(N)=O)C(=O)N[C@@H](CCCNC(=N)N)C(=O)N[C@@H](Cc1ccc(O)cc1)C(=O)N[C@@H](Cc1ccc(O)cc1)C(=O)N[C@H](C(=O)N[C@@H](CO)C(=O)N[C@H](C(=O)N[C@@H](CCCNC(=N)N)C(=O)N[C@@H](Cc1c[nH]cn1)C(=O)N[C@@H](Cc1ccc(O)cc1)C(=O)N[C@@H](Cc1ccc(O)cc1)C(=O)N[C@@H](CC(N)=O)C(=O)N[C@@H](Cc1c[nH]c2ccccc12)C(=O)N[C@@H](CC(C)C)C(=O)N[C@H](C(=O)N[C@@H](CCCNC(=N)N)C(=O)N[C@@H](CCC(N)=O)C(=O)N[C@@H](CCCNC(=N)N)C(=O)N[C@@H](Cc1ccc(O)cc1)C(N)=O)[C@@H](C)O)[C@@H](C)O)C(C)C` [Compound 146, N{alpha-4}-(3-methylbutanoyl)-N{epsilon-7}-[2-(2-{2-[2-(2-{2-[(4S)-4-carboxy-4-(17-carboxyheptadecanamido)butanamido]ethoxy}ethoxy)acetamido]ethoxy}ethoxy)acetamido]-[4A,7K,9E,11E,18Q,22V,24T,28Y,30W,31L]hPYY (4-36)] (Isovaleryl-APEK([AEEA-AEEA-γGlu-C18 diacid])PEEEASPEELQRYYVSTRHYYNWLTRQRY-NH2), the inhibition constant Ki amounted to 5.05 nM.

Take `CC(C)CC(=O)N[C@@H](C)C(=O)N1CCC[C@H]1C(=O)N[C@@H](CCC(=O)O)C(=O)N[C@@H](CCCCNC(=O)COCCOCCNC(=O)COCCOCCNC(=O)CC[C@H](NC(=O)CCCCCCCCCCCCCCCCC(=O)O)C(=O)O)C(=O)N1CCC[C@H]1C(=O)N[C@@H](CCC(=O)O)C(=O)N[C@@H](CCC(=O)O)C(=O)N[C@@H](CC(=O)O)C(=O)N[C@@H](CO)C(=O)N[C@@H](CO)C(=O)N[C@@H](C)C(=O)N[C@@H](CCC(=O)O)C(=O)N[C@@H](CCC(=O)O)C(=O)N[C@@H](CC(C)C)C(=O)N[C@@H](CCC(N)=O)C(=O)N[C@@H](CCCNC(=N)N)C(=O)N[C@@H](Cc1ccc(O)cc1)C(=O)N[C@@H](Cc1ccc(O)cc1)C(=O)N[C@H](C(=O)N[C@@H](CO)C(=O)N[C@@H](CC(C)C)C(=O)N[C@@H](CCCNC(=N)N)C(=O)N[C@@H](Cc1c[nH]cn1)C(=O)N[C@@H](Cc1ccc(O)cc1)C(=O)N[C@@H](Cc1ccc(O)cc1)C(=O)N[C@@H](CC(N)=O)C(=O)N[C@@H](Cc1c[nH]c2ccccc12)C(=O)N[C@@H](CC(C)C)C(=O)N[C@H](C(=O)N[C@@H](CCCNC(=N)N)C(=O)N[C@@H](CCC(N)=O)C(=O)N[C@@H](CCCNC(=N)N)C(=O)N[C@@H](Cc1ccc(O)cc1)C(N)=O)[C@@H](C)O)C(C)C` [Compound 69, N{alpha-4}-(3-methylbutanoyl)-N{epsilon-7}-[2-(2-{2-[2-(2-{2-[(4S)-4-carboxy-4-(17-carboxyheptadecanamido)butanamido]ethoxy}ethoxy)acetamido]ethoxy}ethoxy)acetamido]-[4A,7K,9E,12S,14A,18Q,22V,28Y,30W,31L]hPYY (4-36)]: the inhibition constant (Ki) is 5.74 nM.

`CC(C)CC(=O)N[C@@H](C)C(=O)N1CCC[C@H]1C(=O)N[C@@H](C)C(=O)N[C@@H](CCCCNC(=O)COCCOCCNC(=O)COCCOCCNC(=O)CC[C@H](NC(=O)CCCCCCCCCCCCCCCCC(=O)O)C(=O)O)C(=O)N1CCC[C@H]1C(=O)N1CCC[C@H]1C(=O)N[C@@H](CCC(=O)O)C(=O)N[C@@H](CC(=O)O)C(=O)N[C@@H](C)C(=O)N[C@@H](CO)C(=O)N1CCC[C@H]1C(=O)N[C@@H](CCC(=O)O)C(=O)N[C@@H](CCC(=O)O)C(=O)N[C@@H](CC(C)C)C(=O)N[C@@H](CCC(N)=O)C(=O)N[C@@H](CCCNC(=N)N)C(=O)N[C@@H](Cc1ccc(O)cc1)C(=O)N[C@@H](Cc1ccc(O)cc1)C(=O)N[C@H](C(=O)N[C@@H](CO)C(=O)N[C@@H](CC(C)C)C(=O)N[C@@H](CCCNC(=N)N)C(=O)N[C@@H](Cc1c[nH]cn1)C(=O)N[C@@H](Cc1ccc(O)cc1)C(=O)N[C@@H](Cc1ccc(O)cc1)C(=O)N[C@@H](CC(N)=O)C(=O)N[C@@H](Cc1c[nH]c2ccccc12)C(=O)N[C@@H](CC(C)C)C(=O)N[C@H](C(=O)N[C@@H](CCCNC(=N)N)C(=O)N[C@@H](CCC(N)=O)C(=O)N[C@@H](CCCNC(=N)N)C(=O)N[C@@H](Cc1ccc(O)cc1)C(N)=O)[C@@H](C)O)C(C)C` [Compound 100, N{alpha-4}-(3-methylbutanoyl)-N{epsilon-7}-[2-(2-{2-[2-(2-{2-[(4S)-4-carboxy-4-(17-carboxyheptadecanamido)butanamido]ethoxy}ethoxy)acetamido]ethoxy}ethoxy)acetamido]-[4A,6A,7K,9P,18Q,22V,28Y,30W,31L]hPYY (4-36)]: the inhibitory constant (Ki) is 0.44 nM.
